Reference: US9265773B2, “Tetracyclic heterocycle compounds and methods of use thereof for the treatment of viral diseases” (priority 2011, dated 2016)
pIC50: −log10 of the molar value.

Tests used:
HCV replicon genotype 1a = assay: microbe, parasite or virus in culture; type: cell-based; conditions: Hepatitis C virus, 96 h, genotype 1a replicon cells, incubated 96 hours, NS3/4A ELISA readout
HCV replicon genotype 1b = assay: microbe, parasite or virus in culture; type: cell-based; conditions: Hepatitis C virus, 96 h, genotype 1b replicon cells, incubated 96 hours, NS3/4A ELISA readout

| SMILES | pIC50 (HCV replicon genotype 1a) | pIC50 (HCV replicon genotype 1b) |
| --- | --- | --- |
| COC(=O)c1c(-c2ccc(F)cc2)oc2cc(N(C)S(C)(=O)=O)c(-c3ccc4c(n3)-c3cc5c(F)cccc5n3CO4)cc12 [Compound 150, methyl 5-(11-fluoro-6H-pyrido[2′,3′:5,6][1,3]oxazino[3,4-a]indol-2-yl)-2-(4-fluorophenyl)-6-(N-methylmethylsulfonamido)benzofuran-3-carboxylate] | 7.42 | 7.52 |
| CN(c1cc2oc(-c3ccc(F)cc3)c(C(=O)NCCO)c2cc1-c1ccc2c(n1)-c1cc3c(F)cccc3n1CO2)S(C)(=O)=O [Compound 151, 5-(11-fluoro-6H-pyrido[2′,3′:5,6][1,3]oxazino[3,4-a]indol-2-yl)-2-(4-fluorophenyl)-N-(2-hydroxyethyl)-6-(N-methylmethylsulfonamido)benzofuran-3-carboxamide] | 8.37 | 8.23 |
| CN(c1cc2oc(-c3ccc(F)cc3)c(C(=O)NC3COC3)c2cc1-c1ccc2c(n1)-c1cc3c(F)cccc3n1CO2)S(C)(=O)=O [Compound 152] | 7.85 | 7.82 |
| CONC(=O)c1c(-c2ccc(F)cc2)oc2cc(N(C)S(C)(=O)=O)c(-c3ccc4c(n3)-c3cc5c(F)cccc5n3CO4)cc12 [Compound 153] | 8.60 | 8.31 |
| CN(c1cc2oc(-c3ccc(F)cc3)c(C(N)=O)c2cc1-c1ccc2c(n1)-c1cc3c(F)cccc3n1CO2)S(C)(=O)=O [Compound 154] | 8.57 | 8.66 |
| CN(O)C(=O)c1c(-c2ccc(F)cc2)oc2cc(N(C)S(C)(=O)=O)c(-c3ccc4c(n3)-c3cc5c(F)cccc5n3CO4)cc12 [Compound 155] | 8.15 | 7.77 |
| CCNC(=O)c1c(-c2ccc(F)cc2)oc2cc(N(C)S(C)(=O)=O)c(-c3ccc4c(n3)-c3cc5c(F)cccc5n3CO4)cc12 [Compound 156] | 8.64 | 8.54 |
| CN(c1cc2oc(-c3ccc(F)cc3)c(C(=O)NC3CC3)c2cc1-c1ccc2c(n1)-c1cc3c(F)cccc3n1CO2)S(C)(=O)=O [Compound 157] | 8.12 | 7.96 |
| CC(C)NC(=O)c1c(-c2ccc(F)cc2)oc2cc(N(C)S(C)(=O)=O)c(-c3ccc4c(n3)-c3cc5c(F)cccc5n3CO4)cc12 [Compound 158] | 7.38 | 7.62 |
| CN(c1cc2oc(-c3ccc(F)cc3)c(-c3nnco3)c2cc1-c1ccc2c(n1)-c1cc3c(F)cccc3n1CO2)S(C)(=O)=O [Compound 159, N-(5-(11-fluoro-6H-pyrido[2′,3′:5,6][1,3]oxazino[3,4-a]indol-2-yl)-2-(4-fluorophenyl)-3-(1,3,4-oxadiazol-2-yl)benzofuran-6-yl)-N-methylmethanesulfonamide] | 7.96 | 7.66 |
| CN(c1cc2oc(-c3ccc(F)cc3)c(-c3ncn[nH]3)c2cc1-c1ccc2c(n1)-c1cc3c(F)cccc3n1CO2)S(C)(=O)=O [Compound 160, N-(5-(11-fluoro-6H-pyrido[2′,3′:5,6][1,3]oxazino[3,4-a]indol-2-yl)-2-(4-fluorophenyl)-3-(1H-1,2,4-triazol-5-yl)benzofuran-6-yl)-N-methylmethanesulfonamide] | 7.72 | 7.80 |
| Cc1n[nH]c(-c2c(-c3ccc(F)cc3)oc3cc(N(C)S(C)(=O)=O)c(-c4ccc5c(n4)-c4cc6c(F)cccc6n4CO5)cc23)n1 [Compound 161, N-(5-(11-fluoro-6H-pyrido[2′,3′:5,6][1,3]oxazino[3,4-a]indol-2-yl)-2-(4-fluorophenyl)-3-(3-methyl-1H-1,2,4-triazol-5-yl)benzofuran-6-yl)-N-methylmethanesulfonamide] | 7.49 | 7.27 |
| CNC(=O)c1c(-c2ccc(F)cc2)oc2ccc(-c3ccc4c(n3)-c3cc5c(F)cccc5n3CO4)cc12 [Compound 162, 5-(11-fluoro-6H-pyrido[2′,3′:5,6][1,3]oxazino[3,4-a]indol-2-yl)-2-(4-fluorophenyl)-N-methylbenzofuran-3-carboxamide] | 7.54 | 7.74 |
| CNC(=O)c1c(-c2ccc(F)cc2)oc2cc(N)c(-c3ccc4c(n3)-c3cc5c(F)cccc5n3CO4)cc12 [Compound 163, 6-amino-5-(11-fluoro-6H-pyrido[2′,3′:5,6][1,3]oxazino[3,4-a]indol-2-yl)-2-(4-fluorophenyl)-N-methylbenzofuran-3-carboxamide] | 8.96 | 8.66 |
| CNC(=O)c1c(-c2ccc(F)cc2)oc2cc(-n3cn[nH]c3=O)c(-c3ccc4c(n3)-c3cc5c(F)cccc5n3CO4)cc12 [Compound 164] | 8.77 | 9.00 |
| CNC(=O)c1c(-c2ccc(F)cc2)oc2cc(-c3ccnn3C)c(-c3ccc4c(n3)-c3cc5c(F)cccc5n3CO4)cc12 [Compound 165, 5-(11-fluoro-6H-pyrido[2′,3′:5,6][1,3]oxazino[3,4-a]indol-2-yl)-2-(4-fluorophenyl)-N-methyl-6-(1-methyl-1H-pyrazol-5-yl)benzofuran-3-carboxamide] | 7.57 | 8.01 |
| CNC(=O)c1c(-c2ccc(F)cc2)oc2cc(-c3ccsc3)c(-c3ccc4c(n3)-c3cc5c(F)cccc5n3CO4)cc12 [Compound 166] | 7.16 | 7.57 |

| SMILES | pIC50 (HCV replicon genotype 1a) | pIC50 (HCV replicon genotype 1b) |
| --- | --- | --- |
| CNC(=O)c1c(-c2ccc(F)cc2)oc2cc(-c3ccoc3)c(-c3ccc4c(n3)-c3cc5c(F)cccc5n3CO4)cc12 [Compound 167] | 7.68 | 7.77 |
| CNC(=O)c1c(-c2ccc(F)cc2)oc2cc(N3CCCC3=O)c(-c3ccc4c(n3)-c3cc5c(F)cccc5n3CO4)cc12 [Compound 168, 5-(11-fluoro-6H-pyrido[2′,3′:5,6][1,3]oxazino[3,4-a]indol-2-yl)-2-(4-fluorophenyl)-N-methyl-6-(2-oxopyrrolidin-1-yl)benzofuran-3-carboxamide] | 8.48 | 8.55 |
| CNC(=O)c1c(-c2ccc(F)cc2)oc2cc(N3CCCC3=O)c(-c3ccc4c(n3)-c3cc5cc(F)ccc5n3CO4)cc12 [Compound 169] | 7.85 | 8.30 |
| CNC(=O)c1c(-c2ccc(F)cc2)oc2cc(N3CCCC3=O)c(-c3ncc4c(n3)-c3cc5c(F)cccc5n3CO4)cc12 [Compound 170] | 7.27 | 7.89 |
| CNC(=O)c1c(-c2ccc(F)cc2)oc2cc(N3CCCC3=O)c(-c3ccc4c(c3)-c3cc5c(F)cccc5n3CO4)cc12 [Compound 171, 5-(11-fluoro-6H-benzo[5,6][1,3]oxazino[3,4-a]indol-2-yl)-2-(4-fluorophenyl)-N-methyl-6-(2-oxopyrrolidin-1-yl)benzofuran-3-carboxamide] | 7.92 | 8.33 |
| CNC(=O)c1c(-c2ccc(F)cc2)oc2cc(N3CCOC3=O)c(-c3ccc4c(n3)-c3cc5c(F)cccc5n3CO4)cc12 [Compound 172, 5-(11-fluoro-6H-pyrido[2′,3′:5,6][1,3]oxazino[3,4-a]indol-2-yl)-2-(4-fluorophenyl)-N-methyl-6-(2-oxooxazolidin-3-yl)benzofuran-3-carboxamide] | 8.66 | 8.68 |
| CNC(=O)c1c(-c2ccc(F)cc2)oc2cc(N3CCOC3=O)c(-c3ncc4c(n3)-c3cc5c(F)cccc5n3CO4)cc12 [Compound 173, 5-(11-fluoro-6H-pyrimido[4′,3′:5,6][1,3]oxazino[3,4-a]indol-2-yl)-2-(4-fluorophenyl)-N-methyl-6-(2-oxooxazolidin-3-yl)benzofuran-3-carboxamide] | 8.08 | 8.68 |
| CNC(=O)c1c(-c2ccc(F)cc2)oc2cc(N3CCOC3=O)c(-c3ccc4c(n3)-c3cc5cc(F)ccc5n3CO4)cc12 [Compound 174] | 7.89 | 8.33 |
| CNC(=O)c1c(-c2ccc(F)cc2)oc2cc(N3CCCS3(=O)=O)c(-c3ccc4c(n3)-c3cc5c(F)cccc5n3CO4)cc12 [Compound 175, 6-(1,1-dioxidoisothiazolidin-2-yl)-5-(11-fluoro-6H-pyrido[2′,3′:5,6][1,3]oxazino[3,4-a]indol-2-yl)-2-(4-fluorophenyl)-N-methylbenzofuran-3-carboxamide] | 8.28 | 8.51 |
| CNC(=O)c1c(-c2ccc(F)cc2)oc2cc(N3CCC3=O)c(-c3ccc4c(n3)-c3cc5c(F)cccc5n3CO4)cc12 [Compound 176] | 8.10 | 8.06 |
| CNC(=O)c1c(-c2ccc(F)cc2)oc2cc(N3CCNC3=O)c(-c3ccc4c(n3)-c3cc5c(F)cccc5n3CO4)cc12 [Compound 177, 5-(11-fluoro-6H-pyrido[2′,3′:5,6][1,3]oxazino[3,4-a]indol-2-yl)-2-(4-fluorophenyl)-N-methyl-6-(2-oxoimidazohdin-1-yl)benzofuran-3-carboxamide] | 8.34 | 8.40 |
| CNC(=O)c1c(-c2ccc(F)cc2)oc2cc(N3CCN(C)C3=O)c(-c3ccc4c(n3)-c3cc5c(F)cccc5n3CO4)cc12 [Compound 178, 5-(11-fluoro-6H-pyrido[2′,3′:5,6][1,3]oxazino[3,4-a]indol-2-yl)-2-(4-fluorophenyl)-N-methyl-6-(3-methyl-2-oxoimidazolidin-1-yl)benzofuran-3-carboxamide] | 6.88 | 7.55 |
| CNC(=O)c1c(-c2ccc(F)cc2)oc2cc(N3CC(=O)NC3=O)c(-c3ccc4c(n3)-c3cc5c(F)cccc5n3CO4)cc12 [Compound 179, 6-(2,4-dioxoimidazolidin-1-yl)-5-(11-fluoro-6H-pyrido[2′,3′:5,6][1,3]oxazino[3,4-a]indol-2-yl)-2-(4-fluorophenyl)-N-methylbenzofuran-3-carboxamide] | 7.49 | 8.13 |
| CNC(=O)c1c(-c2ccc(F)cc2)oc2cc(C#N)c(-c3ccc4c(n3)-c3cc5c(F)cccc5n3CO4)cc12 [Compound 180, 6-cyano-5-(11-fluoro-6H-pyrido[2′,3′:5,6][1,3]oxazino[3,4-a]indol-2-yl)-2-(4-fluorophenyl)-N-methylbenzofuran-3-carboxamide] | 8.52 | 8.28 |
| CNC(=O)c1c(-c2ccc(F)cc2)oc2cc(CN)c(-c3ccc4c(n3)-c3cc5c(F)cccc5n3CO4)cc12 [Compound 181] | 7.89 | 7.85 |
| CNC(=O)c1c(-c2ccc(F)cc2)oc2cc(C(=O)OC)c(-c3ccc4c(n3)-c3cc5c(F)cccc5n3CO4)cc12 [Compound 182] | 7.62 | 7.64 |
